Article PMC2862740, “Furin Targeted Drug Delivery for Treatment of Rhabdomyosarcoma in a Mouse Model” (PLoS ONE, 2010)
Positions of bridges follow the written chain, without caps; N, C: chain ends. No end group written: not given here. *: point of attachment. FITC = O=C1OC2(c3ccc(O)cc3Oc3cc(O)ccc32)c2ccc(NC(=S)*)cc21

Experiments:
[1] = test system: RD cells; assay: competition of phage RMS-P3 binding by synthetic peptide; format: cell-based; details: for regression slope b of phage RMS-P3 binding versus peptide concentration: least-squares regression, N = 18, RMS-P3 r^2 = 0.889, p<0.0001, control r^2 = 0.0002, p = 0.959
Method: Figure 1 Validation of selected phages binding on RMS cells in vivo and in vitro. (A) Quantification of binding of single phage clones to different cell lines. Six phages selected from in vitro and in vivo screenings were validated individually in binding assays to three RMS cell lines (embryonal RMS: RD; alveolar RMS: Rh30 and Rh4) as well as to normal myoblasts (SkMC-c) and fibroblast cells (MRC-5). Phage clones are ordered according to the frequency of occurrence. Binding was calculated over non-recombinant T7, depicted are mean values ± SD of three independent experiments. (B) RMS-P3 and RMS-P6 phage distribution in RD mouse xenografts. Homing of phages to tumor was compared to control organs. Binding was normalized over phage T7 and tissue weight. Mean values ± SD of four independent experiments are shown. Numerical values for tumor to organ ratios are indicated above the bars. (C) Validation of RMS-P3 peptide sequence by competition of phage binding. 10^6 RD cells were incubated for 30 min with increasing concentrations of RMS-P3 peptide ([…]) or control peptide ([…]). Then, phages (10^9 pfu) were added for 1 h. Phage binding was normalized over non-recombinant T7. Data are presented as percentage of maximal phage binding obtained in the absence of synthetic peptide. Error bars indicate mean ± SD from three independent experiments. […] TEXT PRINTED IN THE PICTURE: (B) RMS-P6: tumor: 1; muscle: 1/6; kidney: 1/8; brain: 1/28; skin: 1/12 | (B) RMS-P3: tumor: 1; muscle: 1/24; kidney: 1/15; brain: 1/12; skin: 1/10 DOUBTS OF THE COPYIST ABOUT THIS PICTURE: Panel B: the picture prints no measure for the numbers over the bars. Each tissue name was assigned from the bar fill and the order of the printed key. / RMS-P6, brain: 1/28, the last digit may be 8 or 6 (small print)
(§1) 10^6 RD cells were detached (2.5 mM EDTA-PBS) and reconstituted (DMEM/1% BSA). Cells were preincubated with 100 µl of peptides (RMS-P3 or RMS-Pctrl) or general PC inhibitor decanoyl-Arg-Val-Lys-Arg-chloromethylketone (Dec-RVKR-cmk, Calbiochem, Switzerland) for 30 minutes. Phages (10^9 pfu) were added for 1 hour at RT under continuous rotation. Cells were washed four times with DMEM/1% BSA; titer of bound phage was determined by titration with BLT5403 and calculated over non-recombinant T7.

[2] = test system: RD cells; assay: competition of phage RMS-P3/RR binding by Dec-RVKR-cmk; format: cell-based
Method: (§2) Figure 4 RMS-P3/RR phage binding correlates with furin expression levels. (A) Binding of phage RMS-P3/RR to untransfected (MRC-5), furin-overexpressing (MRC-FUR) and empty vector transfected MRC-5 fibroblasts (MRC-EV) was tested in vitro. Phage binding was quantified over control T7. Results of three independent experiments ± SD are shown. Western blot of the same samples for furin expression and PCNA as loading control (A, lower panels) (B) Micrographs of MRC-5 fibroblasts (upper row) and MRC-5-FUR (lower row) cells incubated with 100 nM FITC-RMS-P3/RR (green) for 1h at RT, fixed and stained with the anti-furin-antibody Mon-152 (red). Nuclei are visualized by DAPI staining (blue). Yellow indicates overlap of the two stainings. Magnification: 40x; scale bars: 20 µm. (C) Inhibition of furin maturation in α1-PDX-transfected RD cells reduces phage binding. Phage RMS-P3/RR binding to untransfected RD, furin-inhibited RD-PDX and empty-vector transfected RD-EV cells was determined over non-recombinant T7 in three independent experiments (means ± SD). Expression of the inhibitor α1-PDX was confirmed by western blotting using 100 µg cell extract with antiserum against α1AT (C, lower panels). (D) Effect of the specific PC-inhibitor Dec-RVKR-cmk on phage RMS-P3/RR binding. Competition was performed with increasing concentrations of Dec-RVKR-cmk and constant amounts of phage (10^9 pfu). Phage binding was calculated over T7.
as §1

[3] = test system: RD xenografts; assay: targeted doxorubicin treatment of RD xenografts
Method: Five groups of 6 mice were treated when tumors reached 60 mm^3 in size. Treatment consisted of weekly tail vein injections for 30 days.
CD1-Nu/nu mice (4 to 6 weeks old, Charles River, Germany) were used for the in vivo screening, and 6 weeks old NOD/SCID IL2R γ-/- mice were used for all other studies. RMS cells (5×10^6 in 150 µl HBSS) were injected subcutaneously into the dorsolateral flank of the mice. Both diameters (d) of the spherical tumors were measured twice weekly and the volume was calculated with the general formula V = (4/3) πr^3, whereby r = (d1+d2)/4. Prior to the experiment, mice were anesthetized with 0.015 ml/g avertin by i.p. injection. 1 mg/ml of FITC-peptide in 250 µl PBS was injected by tail vein injection into mice bearing tumors 150 mm^3 in size. After 10 minutes circulation, mice were perfused, tumor and control organs were dissected and frozen in O.C.T. embedding medium (Leica Microsystems, Germany). 10 µm cryosections were washed with PBS, fixed for 15 minutes in ice-cold methanol and air-dried. Endothelial stainings were performed using rat monoclonal antibodies against mouse markers CD31 and MECA-32, both at the dilution of 1∶50 (BD biosciences, Switzerland). A rabbit polyclonal anti-furin-antibody (Abcam) was used at a dilution of 1∶1500. All corresponding secondary antibodies were AlexaFluor594-labeled IgGs (1∶300, Invitrogen).
Mice with size-matched tumors (∼60 mm^3) were randomized into five groups and injected once per week for 4 consecutive weeks. […] Control groups received either a mixture of 10 µg free doxorubicin and peptide RMS-P3/RR, an equimolar solution of peptide RMS-P-3/RR alone or PBS alone. Concentrations were confirmed by measuring the absorbance of conjugated doxorubicin at 490 nm. […] Mice were monitored for weight and tumor growth for 30 days.

[4] = test system: RD xenograft tumors and control organs; assay: FITC-peptide distribution in xenograft mice; format: in vivo, mouse; details: RD xenografts, i.v.
Method: Figure 2 FITC-labeled RMS-P3 binding in vitro and distribution in vivo. (A) Visualization of FITC-RMS-P3 peptide binding in normal and cancer cells in vitro. Cultured myoblasts (SkMC-c), fibroblasts (MRC-5), RMS cells (RD) and breast carcinoma cells (MDA-MB 231) were incubated with 100 nM FITC-RMS-P3 peptide for 1 h at 37°C. Fluorescence microscopy of fixed cells is shown. (B) Living RD cells were incubated with FITC-RMS-P3 peptide, subsequently fixed and stained with giantin (red). Colocalization is shown in the merged picture by yellow. Blue staining (DAPI) indicates the nuclei. Magnifications: 40x, scale bars: 20 µm. (C) Distribution of FITC-RMS-P3 and control peptide FITC-RMS-Pctrl in mice xenografts of RD cells. FITC-RMS-P3 or control FITC-RMS-Pctrl peptide were injected i.v. and after 10 minutes of circulation, mice were perfused and tumor and control organs were collected. Cryosections were double-labeled with mouse endothelial vessels markers CD31 and MECA-32 (red). Nuclear staining by DAPI is shown in blue. Magnifications: 40x, scale bars: 20 µm.
Figure 3 Identification of the receptor for RMS-P3. (A) Alanine-scan of the RMS-P3 sequence. RMS-P3 was mutated by replacing each amino acid residue with alanine (codon GCT). All phage mutants were tested individually for binding to RD cells in vitro. Mutated residues are indicated in bold. Phage binding was quantified over non-recombinant T7 and compared to the binding of wild type phage RMS-P3. Depicted are mean values ± SD of three independent experiments. […] (B) FITC-RMS-P3/RR and FITC-RMS-P3/AA distribution in RD xenograft mice. After tail vein injection of both FITC-RMS-P3/RR or control peptide RMS-P3/AA and circulation of 10 min, mice were perfused, tumors and control organs were dissected and FITC-peptide distribution (green) was evaluated in cryosections under fluorescence microscopy. Blood endothelial stainings (CD31 and MECA32) are shown in red, nuclear staining in blue (DAPI). Magnification: 20x, scale bar 50 µm. (C) Expression of proprotein convertases (PCs) measured by microarray profiling of 9 RMS cell lines and 30 RMS biopsy samples. Expression of PCs recognizing the cleavage site R(X)(R/K)(R/K) were considered. Each cell line or biopsy is represented by one data point. (D) Furin expression in different cell lines. Normal myoblasts (SkMC-c), fibroblasts (MRC-5), RMS cell lines (RD, Rh4, Rh30), furin-deficient colorectal carcinoma cells (LoVo) and furin-positive breast carcinoma cells (MBA-MB 231) were tested for furin expression by qRT-PCR (upper graph). […] Western blot (lower panels). Immature membrane-bound furin was detected at 103 kD, mature furin at 97 kD. PCNA was used as loading control.
Figure 6 FITC-RMS-P3/RR and FITC-RMS-P3/AA distribution in mice bearing RD xenografts. Peptides were injected i.v. and after circulation the mice were perfused, tumors and control organs were removed and peptide distribution was evaluated on cryosections by fluorescence microscopy. Depicted are overlay images (B, upper left panel) and single channel pictures. FITC-peptide stainings (green), either furin or endothelial stainings (CD31, MECA32) in red and cell nuclei in blue (DAPI) are shown. Magnification: 40x, scale bars 50 µm.
Supplementary file pone.0010445.s002.tif: Figure S2 Subcellular localization of FITC-RMS-P3 peptide. (A, B) FITC-RMS-P3/RR cell surface and intracellular localization. RD cells were incubated with 100 nM FITC-RMS-P3 peptide in vitro for 30 min at 4°C (A) or 37°C (B), respectively. Fixed cells were stained with undiluted 5.1H11 hybridoma supernatant against the human muscle-specific cell surface antigen N-CAM (red). A secondary rabbit anti-mouse Cy3 antibody (1∶300, Invitrogen) was used for detection. […] Cell nuclei were visualized with DAPI. Nuclei are indicated in grey. Magnification: 63x, scale bars: 20 µm. […]

[5] = test system: MRC-5-FUR cells; assay: FITC-RMS-P3/RR binding to furin-transfected fibroblasts; format: cell-based; details: 100 nM, 1h at RT
Method: as §2, with “RMS-P3/RR binding. […] Phage binding” for “RMS-P3/RR binding. Competition was performed with increasing concentrations of Dec-RVKR-cmk and constant amounts of phage (10^9 pfu). Phage binding”, “over T7. […]” for “over T7.”

Substance: CSPNNTRRPNKC (disulfide 1-12 (inferred)) [RMS-Pctrl]
- effect on phage RMS-P3 binding ([1]; increasing peptide concentrations): no effect
- regression slope b of phage RMS-P3 binding versus peptide concentration [1]: 0.055

Substance: decanoyl-Arg-Val-Lys-Arg-chloromethylketone [Dec-RVKR-cmk]
- phage RMS-P3/RR binding in presence of inhibitor ([2]; 1 µM Dec-RVKR-cmk, RD cells, 30 min preincubation, phage 10^9 pfu 1 h): half-maximal
- effect on binding of control phage RMS-P3/AA ([2]; Dec-RVKR-cmk, RD cells): remained unaffected
- regression slope b of phage RMS-P3/RR binding versus Dec-RVKR-cmk concentration ([2]; least-squares regression, N = 18, r^2 = 0.883, p<0.0001): −17.9

Substance: Doxorubicin-succinyl-GG-CMGTINTRTRRC (disulfide) [Dox-RMS-P3/RR]
- tumor size compared to Dox alone, Dox and peptide, peptide alone or vehicle ([3]; 10 µg doxorubicin equivalent/week i.v., student's t-test, p<0.05): significantly smaller
- increase in therapeutic efficacy compared to doxorubicin treatment alone ([3]; RMS in mice): two-fold
- delay in tumor growth compared to untargeted drug delivery ([3]; weekly tail vein injections, 30 days): significant delay in tumor growth

Substance: CMGTINTRTKKC (disulfide 1-12 (inferred)) [RMS-P3]
- IC50 ([1]; RD cells, 10^6, peptide preincubated 30 min, then phage 10^9 pfu 1 h at RT, three independent experiments, read-out: Half-maximal inhibition (IC50) of phage RMS-P3 binding): ~100 nM
- regression slope b of phage RMS-P3 binding versus peptide concentration [1]: −17.5
- phage RMS-P3 binding remaining ([1]; peptide at highest concentration tested (10 µM), percentage of maximal phage binding): 7.5%

Substance: FITC-RMS-P3/RR ({FITC}-GGCMGTINTRTRRC; also: cyclic peptide, ring type and places not given here)
- peptide distribution to muscle ([4]; 10 min circulation): not in control organs
- peptide uptake in kidney ([4]; 10 min circulation): not in control organs
- peptide accumulation in tumor ([4]; 10 min circulation, cryosections): Accumulation
- peptide accumulation in tumor ([4]; 10 min circulation, cryosections, listed as FITC-labeled RMS-P3/RR): strong peptide fluorescence
- colocalization with furin around blood vessels in tumor ([4]; cryosections): furin colocalized with peptide RMS-P3/RR fluorescence
- penetration into the tumor ([4]; around blood vessels, cryosections): about 30 µm
- colocalization of furin and FITC-peptide ([5]; anti-furin-antibody Mon-152): clear colocalization
- FITC-peptide binding to MRC-5-FUR cells ([5]; in contrast to untransfected cells): strong peptide binding
